Assay results from patent publication US12551459B2, “Combination of kynurenine and antigen presenting cells (APC) as therapeutics and methods for their use in immune modulation” (THE UNIVERSITY OF BRITISH COLUMBIA, priority 2014, dated 2026).

Key:
[1] = design: species or system mice; settings: NOD (non-obese diabetic), mouse, in vivo, sc
Description: Non-obese diabetic (NOD) mice were intraperitoneal (IP) injected with normal fibroblasts (non-IDO-expressing, 2×10^7 cells per mouse) at the onset of hyperglycemia. Following IP fibroblast injection, the mice were given daily subcutaneous DL-kynurenine injections (20 μg/mouse). The blood glucose levels were monitored twice a week. For the controls, mice were either given only the IP fibroblast injection, or only the daily subcutaneous kynurenine injections as set out above, or were give no treatment at all.
Furthermore, in mouse 1 and mouse 2 (shown in FIG. 1) the subcutaneous kynurenine injections were stopped at 119 and 77 days post IP fibroblast injection, respectively, without a subsequent increase in blood glucose above 10 mM. Kyn injections were done daily because it was cleared from the blood within 8-10 hours. Glucose levels were monitored for up to 120 days, but control groups were sacrificed at earlier time points due to a high level of glucose and prevent the mice from suffering.

[2] = system: C3H/HeJ mice induced to develop alopecia areata (AA); assay: Prevention of alopecia areata in C3H/HeJ mice by fibroblast + kynurenine treatment; type: in vivo
Description: Prevention of alopecia areata by combination fibroblast+kynurenine treatment: C3H/HeJ mice were induce to develop alopecia areata (AA) by intradermal injection of lymph node cells from AA affected mice. These mice (5 per group) then received either no treatment, a single-dose injection of 2×10^6 unmodified primary dermal fibroblasts to peritoneal cavity, oral kynurenine (added to drinking water, 100 μg/mL), or a combination therapy consisting of a) single-dose injection of 2×10^6 unmodified primary dermal fibroblasts to peritoneal cavity and b) oral kynurenine (added to drinking water, 100 μg/mL).

[3] = after 120 days, of Total mice per group

Compound	cleared from the blood within [1]	hair loss pattern after 120 days ([2]; FIG. 4A)	AA (number of mice with alopecia areata) [2, 3]	Normal (number of mice) [2, 3]	Prevention (%) ([2]; prevention of AA)
Nc1ccccc1C(=O)CC(N)C(=O)O (racemic) [Kyn, DL-kynurenine]	8 to 10 h				
Nc1ccccc1C(=O)CC(N)C(=O)O (centres unmarked) [FS1 alone, kynurenine]		some hair growth	4	1	20%
